Test results as given in patent US10117430B2, “Malononitrile compounds for controlling animal pests” (BASF SE, priority 2012, dated 2018).

Assays:
Type in all cases: in vivo
[1] = system: Green Peach Aphid (Myzus persicae); experiment: B.3 Green peach aphid systemic test, artificial diet under membrane; settings: 72 h, concentration of the test solution 2500 mg/L, 3 days
How it was run: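 Systemic uptake from artificial liquid diet beneath a membrane, compound formulated in 75% water/25% DMSO and added to diet at several concentrations, two replicates. 5-8 adult aphids fed on treated diet for 3 days at about 23±1° C. and 50±5% RH. Mortality and fecundity scored visually.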

[2] = system: Green Peach Aphid (Myzus persicae); experiment: B.13 Green peach aphid test on sprayed bell pepper plants; settings: 120 h, in comparison with untreated controls, after 5 days
Source text: B.13 Green Peach Aphid (Myzus persicae)
The active compounds were formulated in cyclohexanone as a 10,000 ppm solution supplied in tubes. The tubes were inserted into an automated electrostatic sprayer equipped with an atomizing nozzle and they served as stock solutions for which lower dilutions were made in 50% acetone:50% water (v/v). A nonionic surfactant (Kinetic®) was included in the solution at a volume of 0.01% (v/v). Bell pepper plants at the first true-leaf stage were infested prior to treatment by placing heavily infested leaves from the main colony on top of the treatment plants. Aphids were allowed to transfer overnight to accomplish an infestation of 30-50 aphids per plant and the host leaves were removed. The infested plants were then sprayed by an automated electrostatic plant sprayer equipped with an atomizing spray nozzle. The plants were dried in the sprayer fume hood, removed, and then maintained in a growth room under fluorescent lighting in a 24-hr photoperiod at about 25° C. and about 20-40% relative humidity. Aphid mortality on the treated plants, relative to mortality on untreated control plants, was determined after 5 days.

[3] = system: Mediterranean Fruitfly (Ceratitis capitata); experiment: B.2 Mediterranean fruitfly microtiter diet test, egg and larval mortality; settings: 120 h, in comparison with untreated controls, egg and larval mortality after 5 days
How it was run: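 Microtiter plates held insect diet with 50-80 C. capitata eggs; compounds in 75% water/25% DMSO were sprayed onto the diet at various concentrations, two replicates. Plates kept about 5 days at 28±1 °C and 80±5% RH, then egg and larval mortality scored visually.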

N#CC(C#N)(Cc1ccc(C(F)(F)F)nc1)c1cc(F)cc(F)c1 [II-34]
≥ 75%: mortality at 2500 µg/mL [1] | mortality at 300 ppm [2] | mortality at 2500 ppm [3]
